Results as given in patent US5817617A, “Selectin and pertussis toxin derived peptides and uses thereof” (The Rockefeller University, priority 1994, dated 1998).
Where a SMILES comes first, the peptide text is derived from it.

Legend:
Type in all cases: cell-based
ELAM = test: Assay 1: inhibition of adherence of neutrophils to ELAM-coated surfaces (FIG. 4); settings: for % of inhibition ASSAY 1: peptide at 1 mg/ml, neutrophils on ELAM-coated surfaces
Protocol: In the study, the proteins PT, B-oligomer, S2, S3, S2/S3 and S3/S2 were taken up in an isotonic buffered tissue culture medium to a concentration of 50 ug/ml and the ability of each of them to inhibit adhesion of neutrophils to ELAM or GMP140 was determined as described by Wright et al J. Exp. Med. 158:2016 (1983). The buffer was employed as the control and each protein studied was compared to the control for the ability to decrease adhesion capacity.
Assay 1 is inhibition of adherence of enutrophils to ELAM-coated surfaces as described in connection with FIG. 4. Values ±20% inhibition are significant.

CR3 = test: Assay 3: upregulation of integrins (CR3) on the surface of a neutrophil, detected with EC3bi (FIG. 5); settings: for # of cells ASSAY 3: peptide at 1 mg/ml, upregulation of integrins on neutrophil; for ability to upregulate integrins on leukocytes, assay 3 (in words): peptides of Table 2
Protocol: EC3bi is an erythrocyte coated with the complement component C3bi and is used to detect the presence of CR3 on the surface of a leukocyte according to the procedure of Wright et al (supra).
The test was conducted with separate proteins in tissue culture as in the experiment described in connection with the previous figure.
Assay 3 measures upregulation of integrins on the surface of a neutorphil as described in FIG. 5. Values ±50% are significant.

endothelial cells = test: Assay 2: inhibition of adherence of a neutrophil to a monolayer of endothelial cells; settings: peptide at 1 mg/ml; for % of inhibition ASSAY 2: neutrophil on monolayer of endothelial cells; for activity in Assays 1 or 2 (in words): adherence of leukocytes to selectins or endothelial cells bearing selectins
Text: Assay 2 is inhibition of adherence of a neutrophil to a monolayer of endothelial cells as described by Lo et al J. Exp. Med. 173:1493-1500 (1991). Values ±50% inhibition are significant.

Molecule	% of inhibition ASSAY 1 (ELAM)	# of cells ASSAY 3 (CR3)	ability to upregulate integrins on leukocytes, assay 3 (in words) (CR3)	% of inhibition ASSAY 2 (endothelial cells) [%]	activity in Assays 1 or 2 (in words) (endothelial cells)	inhibition of neutrophil/leukocyte adherence to ELAM (ELAM; protein at 50 ug/ml, compared to buffer control) [%]
CC[C@H](C)[C@H](NC(=O)[C@H](C)NC(=O)[C@@H](N)C(C)C)C(=O)N[C@@H](CCC(N)=O)C(=O)N[C@@H](CC(N)=O)C(=O)N[C@@H](CCCCN)C(=O)N[C@@H](CCC(=O)O)C(=O)N[C@@H](CCC(=O)O)C(=O)N[C@H](C(=O)N[C@@H](CCC(=O)O)C(=O)N[C@@H](Cc1ccc(O)cc1)C(=O)N[C@@H](CC(C)C)C(=O)N[C@@H](CC(N)=O)C(=O)N[C@@H](CO)C(=O)N[C@H](C(=O)N[C@@H](CC(C)C)C(=O)N[C@@H](CO)C(=O)N[C@@H](Cc1ccc(O)cc1)C(=O)N[C@@H](CO)C(=O)O)[C@@H](C)CC)[C@@H](C)CC [SEQ ID NO:15, VAIQNKEEIEYLNSILSYS] (H-VAIQNKEEIEYLNSILSYS-OH)	22-52%	71 # of cells	ability to upregulate integrins on leukocytes			
CC[C@H](C)[C@H](NC(=O)[C@H](C)NC(=O)[C@@H](NC(=O)[C@H](CC(C)C)NC(=O)[C@H](CC(=O)O)NC(=O)[C@@H](N)[C@@H](C)O)C(C)C)C(=O)N[C@@H](CCC(N)=O)C(=O)N[C@@H](CC(N)=O)C(=O)N[C@@H](CCCCN)C(=O)N[C@@H](C)C(=O)N[C@@H](CCC(=O)O)C(=O)N[C@H](C(=O)N[C@@H](CCC(=O)O)C(=O)N[C@@H](Cc1ccc(O)cc1)C(=O)N[C@@H](CC(C)C)C(=O)O)[C@@H](C)CC [SEQ ID NO:19, TDLVAIQNKAEIEYL] (H-TDLVAIQNKAEIEYL-OH)		104 # of cells	ability to upregulate integrins on leukocytes	80		
CC(C)C[C@H](NC(=O)[C@H](Cc1ccc(O)cc1)NC(=O)[C@@H](NC(=O)[C@H](CCC(N)=O)NC(=O)[C@H](CC(C)C)NC(=O)[C@H](CCC(=O)O)NC(=O)[C@H](C)NC(=O)[C@H](CC(N)=O)NC(=O)CNC(=O)[C@H](CC(C)C)NC(=O)[C@H](CCC(=O)O)NC(=O)[C@H](C)NC(=O)[C@@H](NC(=O)[C@@H](NC(=O)[C@H](CC(C)C)NC(=O)[C@H](C)N)[C@@H](C)O)C(C)C)[C@@H](C)O)C(=O)O [SEQ ID NO:26, ALTVAELGNAELQTYL] (H-ALTVAELGNAELQTYL-OH)			ability to upregulate integrins on leukocytes		active	
CC[C@H](C)[C@H](NC(=O)[C@H](CO)NC(=O)[C@H](CC(N)=O)NC(=O)[C@H](CC(C)C)NC(=O)[C@H](Cc1ccc(O)cc1)NC(=O)[C@H](CCC(=O)O)NC(=O)[C@@H](NC(=O)[C@H](CCC(=O)O)NC(=O)[C@H](CCC(=O)O)NC(=O)[C@@H](N)CCCCN)[C@@H](C)CC)C(=O)N[C@@H](CC(C)C)C(=O)N[C@@H](CO)C(=O)N[C@@H](Cc1ccc(O)cc1)C(=O)N[C@@H](CO)C(=O)O [SEQ ID NO:29, KEEIEYLNSILSYS] (H-KEEIEYLNSILSYS-OH)	0-2%	73 # of cells				
CC[C@H](C)[C@H](NC(=O)[C@H](C)NC(=O)[C@@H](NC(=O)[C@H](CC(C)C)NC(=O)[C@@H](N)[C@@H](C)O)C(C)C)C(=O)N[C@@H](CCC(N)=O)C(=O)N[C@@H](CC(N)=O)C(=O)N[C@@H](CCCCN)C(=O)N[C@@H](CCC(=O)O)C(=O)N[C@@H](CCC(=O)O)C(=O)N[C@H](C(=O)N[C@@H](CCC(=O)O)C(=O)N[C@@H](Cc1ccc(O)cc1)C(=O)N[C@@H](CC(C)C)C(=O)O)[C@@H](C)CC [SEQ ID NO:30, TLVAIQNKEEIEYL] (H-TLVAIQNKEEIEYL-OH)		243 # of cells	ability to upregulate integrins on leukocytes	80		
CC[C@H](C)[C@H](NC(=O)[C@H](C)NC(=O)[C@@H](N)C(C)C)C(=O)N[C@@H](CCC(N)=O)C(=O)N[C@@H](CC(N)=O)C(=O)N[C@@H](CCCCN)C(=O)N[C@@H](C)C(=O)N[C@@H](CCC(=O)O)C(=O)N[C@H](C(=O)N[C@@H](CCC(=O)O)C(=O)N[C@@H](Cc1ccc(O)cc1)C(=O)N[C@@H](CC(C)C)C(=O)N[C@@H](CCC(=O)O)C(=O)N[C@@H](CCCCN)C(=O)N[C@H](C(=O)N[C@@H](CC(C)C)C(=O)N1CCC[C@H]1C(=O)N[C@@H](Cc1ccccc1)C(=O)N[C@@H](CO)C(=O)O)[C@@H](C)O)[C@@H](C)CC [SEQ ID NO:31, VAIQNKAEIEYLEKTLPFS] (H-VAIQNKAEIEYLEKTLPFS-OH)	23-31%	163 # of cells	ability to upregulate integrins on leukocytes			
CC[C@H](C)[C@H](NC(=O)[C@H](CCC(N)=O)NC(=O)[C@H](CCCNC(=N)N)NC(=O)[C@H](CC(C)C)NC(=O)[C@H](Cc1ccc(O)cc1)NC(=O)[C@@H](NC(=O)[C@H](CCC(N)=O)NC(=O)[C@H](CC(C)C)NC(=O)[C@H](CCC(=O)O)NC(=O)[C@H](C)N)[C@@H](C)O)C(=O)N[C@H](C(=O)N1CCC[C@H]1C(=O)NCC(=O)N[C@@H](Cc1c[nH]c2ccccc12)C(=O)N[C@@H](CO)C(=O)O)[C@@H](C)O [SEQ ID NO:32, AELQTYLRQITPGWS] (H-AELQTYLRQITPGWS-OH)	0-18%	122 # of cells				
CC[C@H](C)[C@H](NC(=O)[C@H](C)NC(=O)[C@@H](N)C(C)C)C(=O)N[C@@H](CCC(N)=O)C(=O)N[C@@H](CC(N)=O)C(=O)N[C@@H](CCCCN)C(=O)N[C@@H](CC(N)=O)C(=O)N[C@@H](CCC(=O)O)C(=O)N[C@H](C(=O)N[C@@H](CC(=O)O)C(=O)N[C@@H](Cc1ccc(O)cc1)C(=O)N[C@@H](CC(C)C)C(=O)N[C@@H](CC(N)=O)C(=O)N[C@@H](CCCCN)C(=O)N[C@H](C(=O)N[C@@H](CC(C)C)C(=O)N1CCC[C@H]1C(=O)N[C@@H](Cc1ccc(O)cc1)C(=O)N[C@@H](Cc1ccc(O)cc1)C(=O)N[C@@H](CO)C(=O)O)C(C)C)[C@@H](C)CC [SEQ ID NO:33] (H-VAIQNKNEIDYLNKVLPYYS-OH)	3-14%	113 # of cells	ability to upregulate integrins on leukocytes			
CC(C)C[C@H](NC(=O)[C@H](CC(=O)O)NC(=O)CNC(=O)[C@H](CO)NC(=O)CNC(=O)[C@H](CCCNC(=N)N)NC(=O)[C@H](CC(C)C)NC(=O)[C@H](CCC(=O)O)NC(=O)[C@H](C)NC(=O)[C@@H](N)C(C)C)C(=O)N[C@@H](CCC(N)=O)C(=O)N[C@@H](CCC(=O)O)C(=O)N[C@@H](Cc1ccc(O)cc1)C(=O)N[C@@H](CC(C)C)C(=O)N[C@@H](CCCNC(=N)N)C(=O)N[C@@H](Cc1c[nH]cn1)C(=O)N[C@H](C(=O)N[C@H](C(=O)N[C@@H](CCCNC(=N)N)C(=O)NCC(=O)N[C@@H](Cc1c[nH]c2ccccc12)C(=O)N[C@@H](CO)C(=O)O)[C@@H](C)O)C(C)C [SEQ ID NO:34]	22-33%	18 # of cells	does not share this property			
CC(C)C[C@H](NC(=O)[C@H](CC(=O)O)NC(=O)CN)C(=O)N[C@@H](CCC(N)=O)C(=O)N[C@@H](CCC(=O)O)C(=O)N[C@@H](Cc1ccc(O)cc1)C(=O)N[C@@H](CC(C)C)C(=O)N[C@@H](CCCNC(=N)N)C(=O)N[C@@H](Cc1c[nH]cn1)C(=O)N[C@H](C(=O)N[C@H](C(=O)N[C@@H](CCCNC(=N)N)C(=O)NCC(=O)N[C@@H](Cc1c[nH]c2ccccc12)C(=O)N[C@@H](CO)C(=O)O)[C@@H](C)O)C(C)C [SEQ ID NO:35, GDLQEYLRHVTRGWS]	0-14%	104 # of cells				
CC(C)C[C@H](NC(=O)[C@H](Cc1ccc(O)cc1)NC(=O)[C@H](CCC(=O)O)NC(=O)[C@H](CCC(N)=O)NC(=O)[C@H](CC(C)C)NC(=O)[C@H](CC(=O)O)NC(=O)CNC(=O)[C@H](CO)NC(=O)CNC(=O)[C@H](CC(C)C)NC(=O)[C@H](CCC(=O)O)NC(=O)[C@H](C)NC(=O)[C@@H](NC(=O)[C@@H](NC(=O)[C@H](CC(C)C)NC(=O)[C@H](C)N)[C@@H](C)O)C(C)C)C(=O)O [SEQ ID NO:36, ALTVAELGSGDLQEYL] (H-ALTVAELGSGDLQEYL-OH)		232 # of cells	ability to upregulate integrins on leukocytes	80	active	
S3 with deletion 1: S3 protein from which the VA or YL region of the motif was deleted (TRALTRGNAELQTYLRQITP)						16
